Source: US10683486B2, “Methods for producing hepatocytes” (BioLamina AB, priority 2015, dated 2020)
Read-outs that look alike come from different tables or passages of the source.

System: stem cell derived hepatocytes
Test: Hepatocyte function with Cameron and Avior procedures on laminin-221/laminin-521 substrates (Example 3)
Format: cell-based, human
Excerpt: Stem-cell derived hepatocytes were produced from human embryonic stem cells on three different substrates. The first substrate was pure laminin-521 (LN-521). The second substrate was a mix of laminin-521 and laminin-221 in a weight ratio of 1:3 (221 (1:3)). The third substrate was a mix of laminin-221 and laminin-521 in a weight ratio of 1:1 (221 (1:1)). The Cameron procedure and the Avior procedure were compared to each other.
FIG. 13 is a set of two bar graphs showing hepatocyte function of the two procedures. […] Such benefits were not observed using both MK4 and LCA.

Structure (SMILES)	toxic effects on stem cell derived hepatocytes (Avior procedure, LCA and MK4 together, cell death at day 18)	toxic effects on stem cell derived hepatocytes
C[C@H](CCC(=O)O)[C@H]1CC[C@H]2[C@@H]3CC[C@@H]4C[C@H](O)CC[C@]4(C)[C@H]3CC[C@]12C [LCA, lithocholic acid]	major toxic effects	
CC(C)=CCC/C(C)=C/CC/C(C)=C/CC/C(C)=C/CC1=C(C)C(=O)c2ccccc2C1=O [MK4, vitamin K (MK4)]		major toxic effects
